The assay deals with STAT3. Put plainly: STAT3-dependent luciferase reporter assay in MDA-MB-231-STAT3 stable cells. It counts as cell-based, human. The note with it: 20 μM; for Rel. luciferase activity (%) 1: experiment 1, relative to DMSO; for Rel. luciferase activity (%) 2: experiment 2, relative to DMSO; for Rel. luciferase activity (%) 3: experiment 3, relative to DMSO; for Rel. luciferase activity (%) Mean: mean of experiments, relative to DMSO; for inhibition of luciferase expression compared to DMSO vehicle control: significant = p value less than 0.05. The procedure:
FIG. 12. Identification of active inS3-54 analogues. (A) Effects of inS3-54 analogues on STAT3-dependent luciferase expression. MDA-MB-231 cells with stable STAT3-dependent luciferase expression were treated with DMSO control, 20 μM inSTAT3-54 or its analogues (A1-A79), followed by measurement of luciferase activity. (*p<0.05; **p<0.01; ***p<0.001).
MDA-MB-231-STAT3 stable cell line with high level of STAT3-dependent luciferase expression was exposed to candidate compounds at 20 μM in DMSO for 48 hours based on previous studies, and luciferase activity was measured using a luciferase assay kit (Promega, USA), following manufacturer's instructions. The final DMSO concentration in this and following assays was 0.1% (vol/vol).

As for `CCN(CC)c1ccc(N2C(=O)C(=Cc3ccc([N+](=O)[O-])cc3)C=C2c2ccccc2)cc1` [Compound A45], the “Rel. luciferase activity (%) 1” value is 60.9%, the “Rel. luciferase activity (%) 2” value stood at 89.3%, the “Rel. luciferase activity (%) 3” value is 71.6% and the “Rel. luciferase activity (%) Mean” value came out at 73.9%. Besides, the “inhibition of luciferase expression compared to DMSO vehicle control” value (“inhibition … compared to DMSO vehicle control” below) was “significantly inhibited”.
On to `COc1ccc(C=C2C=C(c3ccccc3)N(c3ccc(F)cc3)C2=O)cc1` [Compound A53], for which the “Rel. luciferase activity (%) 1” value came to 45.4%, the “Rel. luciferase activity (%) 2” value is 113.0%, the “Rel. luciferase activity (%) 3” value stood at 47.4% and the “Rel. luciferase activity (%) Mean” value is listed as 68.6%.
Regarding `O=C1C(=Cc2ccc(-c3ccc([N+](=O)[O-])cc3)o2)C=C(c2ccccc2)N1c1ccc(F)cc1` [Compound A11], the “Rel. luciferase activity (%) 1” value was 73.5%, the “Rel. luciferase activity (%) 2” value is on record as 101.5%, the “Rel. luciferase activity (%) 3” value was determined as 91.7% and the “Rel. luciferase activity (%) Mean” value worked out at 88.9%.
Taken in the same sequence, the figures for `COc1ccc(N2C(=O)C(=Cc3ccc(-c4ccc([N+](=O)[O-])cc4)o3)C=C2c2ccccc2)cc1` [Compound A7] were 99.6%, 109.4%, 72.3% and 93.8%.
As for `COc1ccc(N2C(=O)C(=Cc3ccc(Cl)cc3)C=C2c2ccccc2)cc1` [Compound A17], the “Rel. luciferase activity (%) 1” value was found to be 103.2%, the “Rel. luciferase activity (%) 2” value was found to be 120.5%, the “Rel. luciferase activity (%) 3” value came out at 104.2% and the “Rel. luciferase activity (%) Mean” value is given as 109.3%.
For the molecule `O=C1C(=Cc2ccc(Cl)cc2)C=C(c2ccccc2)N1c1ccc2ccccc2c1` [Compound A59], the “Rel. luciferase activity (%) 1” value is reported as 124.7%, the “Rel. luciferase activity (%) 2” value was determined as 148.5%, the “Rel. luciferase activity (%) 3” value is given as 80.5% and the “Rel. luciferase activity (%) Mean” value is reported as 117.9%.
Take `O=C1C(=Cc2ccc(-c3ccc([N+](=O)[O-])cc3)o2)C=C(c2ccccc2)N1c1ccccc1` [Compound A62]: the “Rel. luciferase activity (%) 1” value is listed as 71.1%, the “Rel. luciferase activity (%) 2” value was determined as 111.3%, the “Rel. luciferase activity (%) 3” value is recorded as 52.2% and the “Rel. luciferase activity (%) Mean” value worked out at 78.2%.
In the case of `COc1ccccc1N1C(=O)C(=Cc2ccc(Cl)cc2)C=C1c1ccccc1` [Compound A75], the “Rel. luciferase activity (%) 1” value amounted to 28.7%, the “Rel. luciferase activity (%) 2” value stood at 71.4%, the “Rel. luciferase activity (%) 3” value was 45.4% and the “Rel. luciferase activity (%) Mean” value is given as 48.5%. For the same molecule, the “inhibition … compared to DMSO vehicle control” value is recorded as “significantly inhibited”.
On to `O=C1C(=Cc2ccc(Cl)cc2)C=C(c2ccccc2)N1c1ccccc1Cl` [Compound A27], for which the “Rel. luciferase activity (%) 1” value was 48.5%, the “Rel. luciferase activity (%) 2” value is 83.6%, the “Rel. luciferase activity (%) 3” value turned out to be 74.2% and the “Rel. luciferase activity (%) Mean” value is reported as 68.8%. Besides, the “inhibition … compared to DMSO vehicle control” value was “significantly inhibited”.
As for `O=C1C(=Cc2ccc([N+](=O)[O-])cc2)C=C(c2ccccc2)N1c1ccc(Cl)c(Cl)c1` [Compound A39], the “Rel. luciferase activity (%) 1” value is given as 119.6%, the “Rel. luciferase activity (%) 2” value was determined as 129.6%, the “Rel. luciferase activity (%) 3” value is 65.9% and the “Rel. luciferase activity (%) Mean” value came out at 105.1%.
The matching figures for `Cc1ccccc1N1C(=O)C(=Cc2ccc(-c3ccc([N+](=O)[O-])cc3)o2)C=C1c1ccccc1` [Compound A9]: 78.4%, 95.8%, 96.2% and 90.2%.
Taken in the same sequence, the figures for `O=C1C(=Cc2ccc([N+](=O)[O-])cc2)C=C(c2ccccc2)N1c1ccccc1O` [Compound A42] were 100.8%, 145.3%, 100.8% and 115.6%.
With `CC(=O)Nc1ccc(N2C(=O)C(=Cc3ccc([N+](=O)[O-])cc3)C=C2c2ccccc2)cc1` [Compound A47], the “Rel. luciferase activity (%) 1” value worked out at 106.8%, the “Rel. luciferase activity (%) 2” value is recorded as 108.8%, the “Rel. luciferase activity (%) 3” value was 43.3% and the “Rel. luciferase activity (%) Mean” value stood at 86.3%.
Taken in the same sequence, the figures for `Cc1ccc(N2C(=O)C(=Cc3ccc([N+](=O)[O-])cc3)C=C2c2ccccc2)cc1C` [Compound A29] were 100.7%, 170.4%, 113.3% and 128.1%.
Taken in the same sequence, the figures for `COC(=O)c1ccc(N2C(=O)C(=Cc3ccc(Cl)cc3)C=C2c2ccccc2)cc1` [Compound A23] were 99.2%, 103.2%, 69.4% and 90.6%.
On to `O=C1C(=Cc2ccc([N+](=O)[O-])cc2)C=C(c2ccccc2)N1Cc1ccccc1` [Compound A36], for which the “Rel. luciferase activity (%) 1” value is on record as 46.4%, the “Rel. luciferase activity (%) 2” value amounted to 87.4%, the “Rel. luciferase activity (%) 3” value was found to be 66.3% and the “Rel. luciferase activity (%) Mean” value was determined as 66.7%. Besides, the “inhibition … compared to DMSO vehicle control” value is on record as “significantly inhibited”.
With `O=C1C(=Cc2ccc([N+](=O)[O-])cc2)C=C(c2ccccc2)N1c1cccc(Cl)c1` [Compound A38], the “Rel. luciferase activity (%) 1” value came to 66.5%, the “Rel. luciferase activity (%) 2” value came to 119.9%, the “Rel. luciferase activity (%) 3” value was determined as 88.8% and the “Rel. luciferase activity (%) Mean” value is given as 91.8%.
The matching figures for `O=C1C(=Cc2ccc(Cl)cc2)C=C(c2ccccc2)N1c1ccc(F)cc1` [Compound A22]: 97.9%, 114.0%, 61.1% and 91.0%.
Taken in the same sequence, the figures for `O=C1C(=Cc2ccc([N+](=O)[O-])cc2)C=C(c2ccccc2)N1c1ccc(Cl)cc1` [Compound A31] were 122.8%, 124.5%, 49.9% and 99.1%.
Regarding `O=C1C(=Cc2ccc(Cl)cc2)C=C(c2ccccc2)N1c1cccc(Cl)c1` [Compound A76], the “Rel. luciferase activity (%) 1” value is on record as 60.0%, the “Rel. luciferase activity (%) 2” value is recorded as 151.4%, the “Rel. luciferase activity (%) 3” value turned out to be 104.0% and the “Rel. luciferase activity (%) Mean” value came to 105.1%.
Taken in the same sequence, the figures for `COc1ccc(C=C2C=C(c3ccccc3)N(c3ccccc3O)C2=O)cc1` [Compound A73] were 72.9%, 97.8%, 103.4% and 91.3%.
The matching figures for `O=C1C(=Cc2ccc([N+](=O)[O-])cc2)C=C(c2ccccc2)N1c1ccc(Cl)c(Cl)c1` [Compound A48]: 87.5%, 108.6%, 42.5% and 79.5%.
As for `O=C1C(=Cc2ccc([N+](=O)[O-])cc2)C=C(c2ccccc2)N1c1ccc(-c2ccccc2)cc1` [Compound A35], the “Rel. luciferase activity (%) 1” value was determined as 51.3%, the “Rel. luciferase activity (%) 2” value is 109.5%, the “Rel. luciferase activity (%) 3” value is reported as 112.6% and the “Rel. luciferase activity (%) Mean” value was 91.1%.
In the case of `O=C1C(=Cc2ccc(-c3ccc([N+](=O)[O-])cc3)o2)C=C(c2ccccc2)N1c1ccccc1Cl` [Compound A14], the “Rel. luciferase activity (%) 1” value came out at 140.4%, the “Rel. luciferase activity (%) 2” value was 129.3%, the “Rel. luciferase activity (%) 3” value amounted to 72.3% and the “Rel. luciferase activity (%) Mean” value amounted to 114.0%.
For `COc1ccc(C=C2C=C(c3ccccc3)N(c3cccc4ccccc34)C2=O)cc1` [Compound A51], the “Rel. luciferase activity (%) 1” value stood at 42.2%, the “Rel. luciferase activity (%) 2” value came to 71.0%, the “Rel. luciferase activity (%) 3” value came out at 56.6% and the “Rel. luciferase activity (%) Mean” value amounted to 56.6%. In addition, the “inhibition … compared to DMSO vehicle control” value was “significantly inhibited”.
For `O=C1C(=Cc2ccc([N+](=O)[O-])cc2)C=C(c2ccccc2)N1c1ccc(F)cc1` [Compound A40], the “Rel. luciferase activity (%) 1” value was determined as 126.5%, the “Rel. luciferase activity (%) 2” value is 101.5%, the “Rel. luciferase activity (%) 3” value was found to be 43.0% and the “Rel. luciferase activity (%) Mean” value is recorded as 90.3%.
The matching figures for `O=C1C(=Cc2ccc(-c3ccc([N+](=O)[O-])cc3)o2)C=C(c2ccccc2)N1c1ccc(Cl)cc1` [Compound A6]: 110.9%, 112.7%, 71.0% and 98.2%.
Taken in the same sequence, the figures for `O=C1C(=Cc2ccc(Cl)cc2)C=C(c2ccccc2)N1c1ccccc1` [Compound A15] were 98.4%, 99.9%, 60.1% and 86.1%.
